According to patent US11369556B2, “Oral care composition comprising rottlerin” (Colgate-Palmolive Company, priority 2017, dated 2022):

What was measured:
[1] = system: S. oralis; test: Metabolic activity of S. oralis, ATP assay; type: cell-based, Streptococcus oralis; settings: for Reduction of Metabolic Activity: incubated 1 hour at 37° C.
Experimental: (§1) S. ovalis is a representative streptococcus species of bacteria that colonize the oral cavity and may serve as a representative species for the efficacy of antimicrobial agents. Table 4 (below) illustrates the effects of rottlerin on the metabolic activity and cell viability of S. ovalis when treated with various concentrations of rottlerin. The metabolic activity of the S. ovalis bacteria was measured through ATP assays, and the cell viability was measured using a resazurin assay.
Similarly, the metabolic activity was measured through an ATP assay as follows: A culture of S. oralis bacteria was grown and standardized to a 610˜0.6 OD. 500 μl of the S. ovalis bacteria culture was then transferred to a clean and sterile micro-centrifuge tube and treated as above. Three 100 μl samples from each tube were then individually plated in individual wells of a 96-well plate and 100 μl of Bactitre glow ATP reagent was added. The metabolic activity of the S. oralis bacteria was then monitored by measuring luminescence, with an increase in luminescence correlating with higher metabolic cells.

[2] = system: A. viscosus; test: 10-hour bacterial growth, optical density readings, A. viscosus; type: cell-based, Actinomyces viscosus
Experimental: (§2) In particular, Tables 1-3 illustrate 10-hour bacterial growth in terms of optical density (OD) readings taken at one-hour intervals, where the density readings represent the amount of bacteria present.
(§3) The bacterial cultures were grown overnight and standardized to a 0.05 OD reading, after which, different concentrations of rottlerin were added, and the bacterial growth was monitored hourly for 10 hours using a plate reader.
Table 2 illustrates three examples of A. viscosus bacterial growth: an untreated A. viscosus growth, a growth of A. viscosus after treatment with 10 μM of rottlerin, and a growth of A. viscosus after treatment with 20 μM of rottlerin.

[3] = system: S. oralis; test: 10-hour bacterial growth, optical density readings, S. oralis; type: cell-based, Streptococcus oralis
Experimental: as §2, §3
Table 1 illustrates three examples of S. oralis bacterial growth: one showing the untreated growth of S. oralis, another showing the growth of S. oralis after treatment with 10 μM of rottlerin, and a final example showing the growth of S. oralis after treatment with 20 μM of rottlerin.

[4] = system: S. oralis; test: Cell viability of S. oralis, resazurin assay; type: cell-based, Streptococcus oralis; settings: for Cell Viability: incubated 1 hour at 37° C.
Experimental: as §1
In particular, the cell viability of S. oralis was measured through a resazurin assay as follows: A culture of S. oralis bacteria was grown and standardized to a 610˜0.6 OD. 500 μl of the S. oralis bacteria culture was then transferred to a clean and sterile micro-centrifuge tube. The tube was then centrifuged at greater than 15,000 g for 10 minutes to pellet the bacteria. The tube samples were then treated with different amounts of rottlerin and resuspended in 1 ml of 0.25× Trypticase soy broth (TSB) in water. Control and dead samples were created by resuspending the pellet bacteria in sterile media or 100% ethanol, and without adding rottlerin. The tubes were then inverted 3 times for mixing and incubated at 37° C. for 1 hour. Afterwards, 1 ml of D/E neutralizing broth was added to each tube and the samples in the tubes were then washed and stained. The tubes were then centrifuged at greater than 15,000 g for 10 minutes to pellet the bacteria again. The supernate was then removed and the bacteria was resuspended in 1 ml of sterile 0.25× TSB wash. Three 100 μl samples from each tube were then each individually plated in individual wells of a 96-well plate. The samples were then prepared for a standard analytic curve by combining fixed ratios of the live and dead control samples. 100 μl of the resazurin dye solution were then added to each well, and the 96-well plate was then incubated at 37° C. until the live control samples turned the appropriate pink color. A fluorescence plate reader was then used to read the fluorescence of the resazurin dye at 560 nm excitation/590 nm emission, and a percentage of live and dead cells was then calculated.

[5] = system: mixed species, equal amounts of S. oralis, S. mutans, and A. viscosus; test: 10-hour bacterial growth, optical density readings, mixed species; type: cell-based
Experimental: as §2, §3
Finally, Table 3 illustrates three examples of mixed species bacterial growth, including equal amounts of S. oralis, S. mutans, and A. viscosus species: an untreated growth, a growth of the mixed species after treatment with 10 μM of rottlerin, and a growth of the mixed species after treatment with 20 μM of rottlerin.

[6] = low concentrations of rottlerin

CC(=O)c1c(O)c(C)c(O)c(Cc2c(O)c3c(c(C(=O)/C=C/c4ccccc4)c2O)OC(C)(C)C=C3)c1O [rottlerin, 5,7-dihydro-2,2-dimethyl-6-(2,4,6-trihydroxy-3-methyl-5-acetylbenzyl)-8-cinnamoyl-1,2-chromene]
Reduction of Metabolic Activity ([1]; Rottlerin Amt. 0.25 μg): 40% | Reduction of Metabolic Activity ([1]; Rottlerin Amt. 1.25 μg): 51% | Reduction of Metabolic Activity ([1]; Rottlerin Amt. 2.5 μg): 60% | Reduction of Metabolic Activity ([1]; Rottlerin Amt. 5 μg): 61% | Reduction of Metabolic Activity ([1]; Rottlerin Amt. 10 μg): 72% | Reduction of Metabolic Activity ([1]; Rottlerin Amt. 12.5 μg): 75% | metabolic activity of S. oralis [1, 6]: significantly negatively affected | A. viscosus growth (OD) ([2]; 10 μM, exposure time 1 hour): 0.105 OD | A. viscosus growth (OD) ([2]; 10 μM, exposure time 2 hours): 0.112 OD | A. viscosus growth (OD) ([2]; 10 μM, exposure time 3 hours): 0.104 OD | A. viscosus growth (OD) ([2]; 10 μM, exposure time 4 hours): 0.093 OD | A. viscosus growth (OD) ([2]; 10 μM, exposure time 5 hours): 0.091 OD | A. viscosus growth (OD) ([2]; 10 μM, exposure time 6 hours): 0.087 OD | A. viscosus growth (OD) ([2]; 10 μM, exposure time 7 hours): 0.084 OD | A. viscosus growth (OD) ([2]; 10 μM, exposure time 8 hours): 0.085 OD | A. viscosus growth (OD) ([2]; 10 μM, exposure time 9 hours): 0.082 OD | A. viscosus growth (OD) ([2]; 10 μM, exposure time 10 hours): 0.079 OD | A. viscosus growth (OD) ([2]; 20 μM, exposure time 1 hour): 0.105 OD | A. viscosus growth (OD) ([2]; 20 μM, exposure time 2 hours): 0.122 OD | A. viscosus growth (OD) ([2]; 20 μM, exposure time 3 hours): 0.121 OD | A. viscosus growth (OD) ([2]; 20 μM, exposure time 4 hours): 0.115 OD | A. viscosus growth (OD) ([2]; 20 μM, exposure time 5 hours): 0.113 OD | A. viscosus growth (OD) ([2]; 20 μM, exposure time 6 hours): 0.106 OD | A. viscosus growth (OD) ([2]; 20 μM, exposure time 7 hours): 0.1 OD | A. viscosus growth (OD) ([2]; 20 μM, exposure time 8 hours): 0.097 OD | A. viscosus growth (OD) ([2]; 20 μM, exposure time 9 hours): 0.091 OD | A. viscosus growth (OD) ([2]; 20 μM, exposure time 10 hours): 0.086 OD | growth of bacteria compared to an untreated control ([2]; A. viscosus, low concentrations of rottlerin (Table 2)): significantly reduced | S. oralis growth (OD) ([3]; 10 μM, exposure time 1 hour): 0.10 OD | S. oralis growth (OD) ([3]; 10 μM, exposure time 2 hours): 0.095 OD | S. oralis growth (OD) ([3]; 10 μM, exposure time 3 hours): 0.091 OD | S. oralis growth (OD) ([3]; 10 μM, exposure time 4 hours): 0.088 OD | S. oralis growth (OD) ([3]; 10 μM, exposure time 5 hours): 0.089 OD | S. oralis growth (OD) ([3]; 10 μM, exposure time 6 hours): 0.091 OD | S. oralis growth (OD) ([3]; 10 μM, exposure time 7 hours): 0.088 OD | S. oralis growth (OD) ([3]; 10 μM, exposure time 8 hours): 0.075 OD | S. oralis growth (OD) ([3]; 10 μM, exposure time 9 hours): 0.075 OD | S. oralis growth (OD) ([3]; 10 μM, exposure time 10 hours): 0.074 OD | S. oralis growth (OD) ([3]; 20 μM, exposure time 1 hour): 0.098 OD | S. oralis growth (OD) ([3]; 20 μM, exposure time 2 hours): 0.099 OD | S. oralis growth (OD) ([3]; 20 μM, exposure time 3 hours): 0.089 OD | S. oralis growth (OD) ([3]; 20 μM, exposure time 4 hours): 0.088 OD | S. oralis growth (OD) ([3]; 20 μM, exposure time 5 hours): 0.091 OD | S. oralis growth (OD) ([3]; 20 μM, exposure time 6 hours): 0.090 OD | S. oralis growth (OD) ([3]; 20 μM, exposure time 7 hours): 0.090 OD | S. oralis growth (OD) ([3]; 20 μM, exposure time 8 hours): 0.081 OD | S. oralis growth (OD) ([3]; 20 μM, exposure time 9 hours): 0.080 OD | S. oralis growth (OD) ([3]; 20 μM, exposure time 10 hours): 0.079 OD | growth of bacteria compared to an untreated control ([3]; S. oralis, low concentrations of rottlerin (Table 1)): significantly reduced | Cell Viability ([4]; Rottlerin Amt. 0.25 μg): 79.5% | Cell Viability ([4]; Rottlerin Amt. 1.25 μg): 61% | Cell Viability ([4]; Rottlerin Amt. 2.5 μg): 49.4% | Cell Viability ([4]; Rottlerin Amt. 5 μg): 41.1% | Cell Viability ([4]; Rottlerin Amt. 10 μg): 25.9% | Cell Viability ([4]; Rottlerin Amt. 12.5 μg): 19.9% | cell viability of S. oralis [4, 6]: significantly negatively affected | Mixed species growth (OD) ([5]; 10 μM, exposure time 1 hour): 0.088 OD | Mixed species growth (OD) ([5]; 10 μM, exposure time 3 hours): 0.083 OD | Mixed species growth (OD) ([5]; 10 μM, exposure time 4 hours): 0.081 OD | Mixed species growth (OD) ([5]; 10 μM, exposure time 5 hours): 0.082 OD | Mixed species growth (OD) ([5]; 10 μM, exposure time 6 hours): 0.079 OD | Mixed species growth (OD) ([5]; 10 μM, exposure time 7 hours): 0.076 OD | Mixed species growth (OD) ([5]; 10 μM, exposure time 8 hours): 0.073 OD | Mixed species growth (OD) ([5]; 10 μM, exposure time 9 hours (head of second time column, c2)): 0.085 OD | Mixed species growth (OD) ([5]; 10 μM, exposure time 10 hours): 0.070 OD | Mixed species growth (OD) ([5]; 20 μM, exposure time 1 hour): 0.089 OD | Mixed species growth (OD) ([5]; 20 μM, exposure time 3 hours): 0.090 OD | Mixed species growth (OD) ([5]; 20 μM, exposure time 4 hours): 0.089 OD | Mixed species growth (OD) ([5]; 20 μM, exposure time 5 hours): 0.088 OD | Mixed species growth (OD) ([5]; 20 μM, exposure time 6 hours): 0.085 OD | Mixed species growth (OD) ([5]; 20 μM, exposure time 7 hours): 0.082 OD | Mixed species growth (OD) ([5]; 20 μM, exposure time 8 hours): 0.076 OD | Mixed species growth (OD) ([5]; 20 μM, exposure time 9 hours (head of second time column, c2)): 0.091 OD | Mixed species growth (OD) ([5]; 20 μM, exposure time 10 hours): 0.071 OD | growth of bacteria compared to an untreated control ([5]; mixed species, low concentrations of rottlerin (Table 3)): significantly reduced
